In patent US20260152487A1 (Sitryx Therapeutics Limited, priority 2021, published 2026):

Experiments:
A549 cells = experiment: A549 cell proliferation in low-serine medium (CellTiter-Glo 2.0 viable cell number); format: cell-based; conditions: Homo sapiens, 72 h, 3 days, Assay Medium with 20 μM L-serine
Description: The effect of compounds of Formula (Ia) on A549 cell proliferation in low-serine medium was assessed using a luminescence assay of viable cell number (CellTiter-Glo® 2.0, Promega) duplexed with a fluorescent cytotoxicity assessment (CelITox™ Green, Promega). Cell culture reagents were from ThermoFisher unless specified otherwise. Assay reagents were from Sigma-Aldrich unless specified otherwise. Test Compounds were prepared as 10 mM DMSO stocks and dilution series prepared in DMSO for direct dilution into culture medium.
Cells were passaged every 3-4 days at 80-90% confluence. The cell monolayer was washed twice with room-temperature Ca^2+/Mg-free PBS and 4 ml room-temperature trypsin-EDTA added to the flask. After 5 minutes' incubation (37° C., 5% CO2) to detach cells, trypsin was quenched with 13 ml warmed complete growth medium and the cells harvested and diluted to 2.4×10^4 cells/ml for dispensing into 384-well clear-bottom black-walled plates (600 cells/well).
Following overnight incubation, growth medium was aspirated from each well and the cells washed twice with Assay Medium comprising Basal Medium Eagle supplemented with 3% heat-inactivated dialysed FBS plus 2 mM L-glutamine plus 20 μM L-serine (Sigma-Aldrich). After aspiration of the final wash medium, Assay Medium containing Test Compound was added to each well. DMSO vehicle controls were included on each plate.
Cells were incubated for 3 days in a humidified incubator (37° C., 5% CO2) at which point CelITox™ Green and CellTiter-Glo® reagents were prepared according to the manufacturer's instructions. Triton-X was added to HIGH wells for cytotoxicity determination and the plate incubated for 30 minutes (20° C., ambient humidity and pCO2). CelITox™ Green reagent was added to each well and the plate covered, placed on an orbital shaker @450 rpm for 2 minutes, and incubated in the dark for 15 minutes (20° C., ambient humidity and pCO2). Endpoint fluorescence was measured using a plate reader (PHERAstar® FSX, BMG Labtech).
Following cytotoxicity determination, CellTiter-Glo® reagent was added to each well and the plate placed on an orbital shaker @450 rpm for 2 minutes to lyse cells. Plates were incubated in the dark for 15-30 minutes (20° C., ambient humidity and pCO2) prior to endpoint luminescence measurement (PHERAstar® FSX, BMG Labtech).
Proliferation was calculated by normalizing luminescence signals to LOW controls obtained from a parallel plate processed at the time of Test Compound challenge and HIGH (DMSO vehicle) wells from the compound plate. IC50 values were determined from a 4-parameter logistic fit of compound concentration-response curves.

recombinant human PKM2 = target: T1, recombinant human PKM2 (Homo sapiens, UniProt P14618); experiment: Human PKM2 activation assay (Kinase-Glo Plus luminescent detection of generated ATP); format: biochemical; conditions: for Emax: percentage activation normalised to DMSO vehicle (LOW) and 5 μM TEPP-46 (HIGH), read-out: hPKM2 Emax; for EC50: recombinant human PKM2 activation, 4-parameter logistic fit, read-out: hPKM2 EC50
T1 construct: His (N); purchased R&D Systems
T1 sequence (P14618 2-531 limits assumed): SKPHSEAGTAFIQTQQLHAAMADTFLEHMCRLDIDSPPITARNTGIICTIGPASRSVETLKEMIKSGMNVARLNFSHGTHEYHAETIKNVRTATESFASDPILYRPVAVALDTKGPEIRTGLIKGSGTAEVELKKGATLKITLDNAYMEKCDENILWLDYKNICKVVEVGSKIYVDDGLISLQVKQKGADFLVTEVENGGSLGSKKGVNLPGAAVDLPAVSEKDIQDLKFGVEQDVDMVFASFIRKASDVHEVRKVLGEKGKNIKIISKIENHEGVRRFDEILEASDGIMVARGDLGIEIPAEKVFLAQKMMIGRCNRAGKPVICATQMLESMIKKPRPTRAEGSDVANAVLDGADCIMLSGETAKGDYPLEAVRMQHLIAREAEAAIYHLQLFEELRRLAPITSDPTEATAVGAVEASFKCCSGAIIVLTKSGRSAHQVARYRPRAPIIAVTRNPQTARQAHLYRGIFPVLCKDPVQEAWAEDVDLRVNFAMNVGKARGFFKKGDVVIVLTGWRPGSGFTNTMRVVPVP
Procedure, shortened: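 Luminescent ATP detection (Kinase-Glo Plus, 15 min, 26 °C) followed a 60 min, 26 °C shaken reaction of compound with […] His-tagged human PKM2, PEP and ADP in imidazole/KCl/MgCl2 buffer with Tween20 and BSA, pH 7.2.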

Row | IC50 (A549 cells) [nM] | Emax (recombinant human PKM2) [%] | EC50 (recombinant human PKM2) [nM] | SMILES
1 | 0.8 | 85 | 33.7 | O=c1c2ccc(S(=O)(=O)c3ccccc3)cc2cnn1Cc1ccc2c(c1)OCCO2 [Example 29, 2-((2,3-dihydrobenzo[b][1,4]dioxin-6-yl)methyl)-6-(phenylsulfonyl)phthalazin-1(2H)-one]
2 | 1.5 | 103 | 64.5 | COc1ccc(S(=O)(=O)c2ccc3c(=O)n(Cc4cccnc4)ncc3c2)cc1 [Example 42, 6-((4-methoxyphenyl)sulfonyl)-2-(pyridin-3-ylmethyl)phthalazin-1(2H)-one]
3 | 2.7 | 92 | 63.6 | Cc1c[nH]nc1Cn1ncc2cc(S(=O)(=O)c3ccccc3)ccc2c1=O [Example 12, 2-((4-methyl-1H-pyrazol-3-yl)methyl)-6-(phenylsulfonyl)phthalazin-1(2H)-one]
4 | 6.2 | 93 | 142 | COc1ccc(S(=O)(=O)c2ccc3c(=O)n(Cc4ccc(OC)cc4C(N)=O)ncc3c2)cc1 [Example 106, 5-methoxy-2-((6-(4-methoxyphenylsulfonyl)-1-oxophthalazin-2(1H)-yl)methyl)benzamide]
5 | 1.2 | 104 | 56.5 | COc1ccc(S(=O)(=O)c2ccc3c(=O)n(Cc4n[nH]cc4C)ncc3c2)cc1 [Example 104, 6-((4-methoxyphenyl)sulfonyl)-2-((4-methyl-1H-pyrazol-3-yl)methyl)phthalazin-1(2H)-one]
6 | 0.7 | 106 | 53.9 | COc1ccc(S(=O)(=O)c2ccc3c(=O)n(Cc4cccn(C)c4=O)ncc3c2)cc1 [Example 4, 6-((4-methoxyphenyl)sulfonyl)-2-((1-methyl-2-oxo-1,2-dihydropyridin-3-yl)methyl)phthalazin-1(2H)-one]
7 | 5.7 | 89.2 | 59.1 | COc1ccc(S(=O)(=O)c2ccc3c(=O)n(Cc4c(F)cc(OC)cc4F)ncc3c2)cc1 [Example 53, 2-(2,6-difluoro-4-methoxybenzyl)-6-((4-methoxyphenyl)sulfonyl)phthalazin-1(2H)-one]
8 | 64.8 | 79 | 506 | O=c1c2ccc(S(=O)(=O)c3ccccc3)cc2cnn1Cc1cccc2nccn12 [Example 34, 2-(imidazo[1,2-a]pyridin-5-ylmethyl)-6-(phenylsulfonyl)phthalazin-1(2H)-one]
9 | 42 | 74.9 | 809 | COc1cncc(Cn2ncc3cc(S(=O)(=O)c4ccccc4)ccc3c2=O)c1 [Example 31, 2-((5-methoxypyridin-3-yl)methyl)-6-(phenylsulfonyl)phthalazin-1(2H)-one]
10 | 2.5 | 89.5 | 38.7 | O=c1c2ccc(S(=O)(=O)c3ccccc3)cc2cnn1Cc1ccc(OC(F)F)nc1 [Example 62, 2-((6-(difluoromethoxy)pyridin-3-yl)methyl)-6-(phenylsulfonyl)phthalazin-1(2H)-one]
11 | 3.9 | 99 | 72.4 | CCn1ccc(Cn2ncc3cc(S(=O)(=O)c4ccccc4)ccc3c2=O)n1 [Example 11, 2-((1-ethyl-1H-pyrazol-3-yl)methyl)-6-(phenylsulfonyl)phthalazin-1(2H)-one]
12 | 4.8 | 76 | 234 | COc1ccc(S(=O)(=O)c2ccc3c(=O)n(Cc4ccc(Cl)cc4F)ncc3c2)cc1 [Example 46, 2-(4-chloro-2-fluorobenzyl)-6-((4-methoxyphenyl)sulfonyl)phthalazin-1(2H)-one]
13 | 3.2 | 107 | 68.9 | COc1ccc(Cn2ncc3cc(S(=O)(=O)c4ccccc4)ccc3c2=O)nc1 [Example 59, 2-((5-methoxypyridin-2-yl)methyl)-6-(phenylsulfonyl)phthalazin-1(2H)-one]
14 | 26.2 | 83.5 | 435 | COc1ccc(S(=O)(=O)c2ccc3c(=O)n(Cc4ccno4)ncc3c2)cc1 [Example 45, 2-(isoxazol-5-ylmethyl)-6-((4-methoxyphenyl)sulfonyl)phthalazin-1(2H)-one]
15 | 4.3 | 88.5 | 115 | NC(=O)c1ccccc1Cn1ncc2cc(S(=O)(=O)c3ccccc3)ccc2c1=O [Example 66, 2-((1-oxo-6-(phenylsulfonyl)phthalazin-2(1H)-yl)methyl)benzamide]
16 | 9.9 | 116 | 95.4 | CC(C)n1ccc(Cn2ncc3cc(S(=O)(=O)c4ccccc4)ccc3c2=O)n1 [Example 95, 2-((1-isopropyl-1H-pyrazol-3-yl)methyl)-6-(phenylsulfonyl)phthalazin-1(2H)-one]
17 | 3.6 | 118 | 133 | COc1cccc(Cn2ncc3cc(S(=O)(=O)c4ccccc4)ccc3c2=O)n1 [Example 37, 2-((6-methoxypyridin-2-yl)methyl)-6-(phenylsulfonyl)phthalazin-1(2H)-one]
18 | 0.5 | 87.9 | 25.5 | COc1ccc(S(=O)(=O)c2ccc3c(=O)n(Cc4ccc5c(c4)CCO5)ncc3c2)cc1 [Example 47, 2-((2,3-dihydrobenzofuran-5-yl)methyl)-6-((4-methoxyphenyl)sulfonyl)phthalazin-1(2H)-one]
19 | 2.9 | 54.9 | 112 | CNC(=O)c1occc1Cn1ncc2cc(S(=O)(=O)c3ccc(OC)cc3)ccc2c1=O [Example 17, 3-((6-((4-methoxyphenyl)sulfonyl)-1-oxophthalazin-2(1H)-yl)methyl)-N-methylfuran-2-carboxamide]
20 | 17.5 | 105 | 362 | NC(=O)c1ncccc1Cn1ncc2cc(S(=O)(=O)c3ccccc3)ccc2c1=O [Example 9, 3-((1-oxo-6-(phenylsulfonyl)phthalazin-2(1H)-yl)methyl)picolinamide]
21 | 41.8 | 63 | 367 | COc1ccc(S(=O)(=O)c2ccc3c(=O)n(CCc4ccccc4)ncc3c2)cc1 [Example 44, 6-((4-methoxyphenyl)sulfonyl)-2-phenethylphthalazin-1(2H)-one]
22 | 1.7 | 105 | 63.3 | COc1ccc(F)c(Cn2ncc3cc(S(=O)(=O)c4ccccc4)ccc3c2=O)c1 [Example 33, 2-(2-fluoro-5-methoxybenzyl)-6-(phenylsulfonyl)phthalazin-1(2H)-one]
23 | 10.4 | 110 | 183 | CC1(C)Cc2cc(Cn3ncc4cc(S(=O)(=O)c5ccccc5)ccc4c3=O)ccc2O1 [Example 35, 2-((2,2-dimethyl-2,3-dihydrobenzofuran-5-yl)methyl)-6-(phenylsulfonyl)phthalazin-1(2H)-one]
24 | 19.4 | 90.2 | 203 | COc1ccccc1Cn1ncc2cc(S(=O)(=O)c3ccccc3)ccc2c1=O [Example 79, 2-(2-methoxybenzyl)-6-(phenylsulfonyl)phthalazin-1(2H)-one]

Row | SMILES | IC50 (A549 cells) [nM] | Emax (recombinant human PKM2) [%] | EC50 (recombinant human PKM2) [nM]
25 | O=c1c2ccc(S(=O)(=O)c3ccccc3)cc2cnn1Cc1ccccc1CO [Example 20, 2-(2-(hydroxymethyl)benzyl)-6-(phenylsulfonyl)phthalazin-1(2H)-one] | 6.4 | 90.7 | 249
